Source: patent US6878690B2, “Compounds and methods” (PharmAxis Pty Ltd., priority 2000, dated 2005)
Where “and” joins values, the source holds several entries; their conditions need not be identical. Equal entries are not always repeated.

Legend:
[1] = test system: passively transferred adjuvant arthritis; test: Passively transferred adjuvant induced arthritis; format: in vivo, DA rats; details: 25 mg/kg/day, end of the one week treatment period, FIG. 1
Method: Male DA rats 8 to 10 week old were immunised with three 100 microliter injections of Complete Freund's Adjuvant (CFA) intradermally at the base of the tail. The CFA was prepared by mixing 8 mg/ml of Mycobacterium butyricum (Difco Laboratories, USA) that had been ground to a fine powder using a mortar and pestle, in 85% light mineral oil (Sigma, USA) and 15% mannide monooleate (Sigma) and emulsifying this suspension, one part in one part saline. Thus, the final emulsion contained 4 mg/ml of M. butyricum.
Ten days after immunisation the rats were euthanased and the spleens removed aseptically. A single cell suspension was prepared in the usual manner in mixed lymphocyte culture medium (MLC) (Dulbecco's Modified Eagle's Medium (DMEM) plus glucose, folic acid, L-asparagine, sodium pyruvate, HEPES, 2-mercapto ethanol, penicillin, streptomycin, neomycin and 10% fetal calf serum) by pushing the spleens through a stainless steel sieve. The cells were placed in culture in MLC medium with 2 micrograms/ml concanavalin A added such that the lymphocyte concentration was 2 million cells per milliliter. These cells were cultured aseptically at 37° C. in an atmosphere containing 5% carbon dioxide for 72 hours.
Groups of 4 or 5 DA rats, 6 to 8 weeks of age were anesthetised with diethyl ether and implanted subcutaneously on the flank with Alzet 2002 (2 week delivery) or 2001 (1 week delivery) mini-osmotic pumps (Alza Corp., Palo Alto Calif., USA). One treatment group received phosphoric acid mono-(6-propyl-3,4,5-trihydroxy-tetrahydro-pyran-2-ylmethyl) ester in the one week delivery Alzet 2001 mini-osmotic pumps. The drug was delivered at a dose of 25 mg/kg/day. The control group for this experiment received identical mini-osmotic pumps containing normal saline. In a second experiment another group of DA rats received ethyl (3,4,5-trihydroxy-6-phosphonooxymethyl-tetrahydro-pyran-2-yl)-acetic acid ester in the two week delivery Alzet 2002 mini-osmotic pumps. This drug was delivered at a dose of 37 mg/kg/day. Control animals for this group received saline delivered in identical mini-osmotic pumps. The pumps in each case were implanted subcutaneously on the flank of each animal. […]
After 5 to 8 days, a characteristic thickening and cutaneous hyperemia of the distal joints of the hind legs became clinically apparent in the saline control animals. Disease severity was evaluated and graded in each group by taking daily measurements of the mediolateral widths of both ankle joints. The data were expressed as the mean of the change (compared with width prior to cell injection) in mediolateral ankle width expressed in millimeters (±standard error of the mean).

[2] = test system: passively transferred EAE; test: Passively transferred EAE induced with encephalitogenic MBP-specific T cell line (Example 23); format: in vivo, Lewis rats; details: for clinical scores treated, mean: group mean; for clinical scores treated, mean / clinical scores treated: scale 0 to 5; for clinical scores treated: individual rats, 45 mg/kg/rat/day mini-osmotic pump
Method: In order to study the effect of the agents of the present invention in vivo on a disease caused by T lymphocyte migration into a specific tissue, experiments were performed in the Lewis rat model of passively transferred EAE. Here, myelin basic protein (MBP)-specific T lymphocyte cell lines were generated from the draining lymph nodes of Lewis rats that had been immunised with MBP in Freund's complete adjuvant essentially according to the method of Ben-Nun et al. (1981) as described in Example 8. Thus, in this manner, donor T lymphocytes were generated from female 10 to 12 week old Lewis rats weighing 150 to 200 g. These rats were injected intradermally in a footpad of each hind foot with an emulsion of Guinea pig myelin basic protein (MBP; prepared according to the method of Deibler et al., 1972; incorporated herein by reference) in Freund's complete adjuvant (0.05 ml). The adjuvant emulsion was prepared by emulsifying equal volumes of a mixture of light mineral oil (Sigma) and normal saline containing Guinea pig myelin basic protein (0.5 mg/ml) and Mycobacterium butyricum (4 mg/ml; Difco). Thus, the total dose per rat was 50 micrograms of MBP and 400 micrograms of M. butyricum. Approximately 11 days following injection, the rats were euthanased and the draining lymph nodes (popliteal and inguinal) removed aseptically by blunt dissection and placed into mixed lymphocyte culture medium. This medium was prepared in the normal fashion from Dulbecco's Modified Eagle's Medium (DMEM; GIBCO, Grand Island, N.Y.) supplemented with glucose, folic acid, L-asparagine, sodium bicarbonate, L-glutamine, sodium pyruvate, HEPES, 2-mercaptoethanol (5×10^−5 M), penicillin, streptomycin, neomycin, and 2% fetal calf serum. A single cell suspension was prepared from the lymph nodes in the usual manner by gently pushing the nodes through a stainless steel screen. The cells were washed twice in the culture medium and following this procedure, any red blood cells were lysed in the usual manner by treating with a solution of ammonium chloride, EDTA and sodium hydrogen carbonate (pH 7.3) and the preparation strained (Falcon 2350 cell strainer). The cells were washed again in the lymphocyte culture medium. All cell preparative steps were performed on ice. These cells were cultured asceptically for 72 hours at 37° C. in a humidified atmosphere containing 7.5% carbon dioxide at a concentration of 5 million cells per milliliter in the presence of MBP (0.06 mg/ml). The cells were collected and the lymphoblasts were isolated by centrifugation on a Ficoll (Pharmacia, Uppsala, Sweden) gradient in an identical manner to that described by Ben Nun et al. (1981). The fraction containing ≧90% lymphoblasts was cultured and propagated in Eagle's medium supplemented with 15% of a concanavalin A-stimulated lymphocyte supernatant to provide growth factors, 10% fetal calf serum, nonessential amino acids (Bio-Lab, Jerusalem, Israel); sodium pyruvate, 2-mercapto ethanol and antibiotics without added antigen. The cells were plated in 100 mm petri dishes at a concentration of 0.2 million cells/ml and replated every 3 or 4 days. Prior to transfer into Lewis recipients, the cells were restimulated in the presence of MBP (0.01 mg/ml) and irradiated syngeneic thymocytes for 4 days.
These cells were highly encephalitogenic sine as few as 500,000 cells were capable of inducing disease when injected into naïve Lewis rats. Thus, in a typical experiment a group of 5 female Lewis rats, approximately 9 weeks old, weighing 110±15 grams were anesthetised with diethyl ether and implanted with mini-osmotic pumps (Alzet 2002, Alza Corp., Palo Alto Calif., USA) containing phosphoric acid mono-(6-propyl-3,4,5-trihydroxy-tetrahydro-pyran-2-ylmethyl) ester mono sodium salt dissolved in normal saline at a concentration that delivered the drug at a rate of 45 mg/kg/rat/day. […]

## CCCC1OC(COP(=O)(O)O)C(O)C(O)C1O (stereo not drawn) [phosphoric acid mono-(6-propyl-3,4,5-trihydroxy-tetrahydro-pyran-2-ylmethyl) ester]
[1]; one week Alzet 2001 pump subcutaneously, controls severe swelling
  swelling in the affected joints of treated animals: little swelling
[1]; one week Alzet 2001 pump
  disease status of the treated versus the control animals: highly statistically significant difference
[2]; day 4, 45 mg/kg/rat/day
  clinical scores treated, mean: 0
[2]; day 4
  clinical scores treated: 0
[2]; day 5, 45 mg/kg/rat/day
  clinical scores treated, mean: 0.6
[2]; day 5, 45 mg/kg
  clinical scores treated: 1 (3×) and 0 (2×)
[2]; day 6, 45 mg/kg/rat/day
  clinical scores treated, mean: 1
[2]; day 6, 45 mg/kg
  clinical scores treated: 2 (2×) and 0 (2×) and 1
[2]; day 7, 45 mg/kg/rat/day
  clinical scores treated, mean: 0.4
[2]; day 7, 45 mg/kg
  clinical scores treated: 0 (3×) and 1 (2×)
[2]; treated group, 45 mg/kg/rat/day, control group 2.0
  Mean maximum clinical score: clinical score 1.0
[2]; treated group, 45 mg/kg/rat/day, control group DI 160
  disease index (DI): DI 40
